Experimental data as given in patent publication US20180338952A1, “COMPOSITIONS AND METHODS FOR TREATING AND DIAGNOSING OCULAR DISORDERS” (Translatum Medicus Inc., priority 2014, published 2018).
“Also recorded” adds a separate entry of the source.

Experiments:
[1] = tested on: circulating monocytes and resident macrophages; assay: Monocyte/macrophage depletion in the NaIO3 model, FAF/DNIRA pattern; assay type: in vivo, rat; details: for NaIO3-induced pattern of FAF (and DNIRA): macrophage/monocyte depletion, Day 3 and Day 7 after NaIO3
From the text: To determine the identity of the autofluorescent cells that coincide with the reticular pattern of FAF, excised retina were stained for with markers of the innate immune system, avoiding the 488 nm channel. Iba1 is a pan-microglial/macrophage marker and in the rat retina; antibodies against it identify the major phagocytic cell populations. […] Further, when compared against photoreceptor nuclear staining, this curvilinear pattern is seen to lie interposed between folds of the deformed ONL. This pattern of Iba1^+ cells corresponds with the pattern of hyperfluorescence observed in vivo by FAF imaging, and with the pattern of autofluorescent cells in excised retina. […] Importantly, at 7 days after NaIO3, all RPE cells are absent from the posterior eye cup, confirming that these cells cannot be responsible for the observed FAF. Also, identification of the autofluorescent cells as phagocytic was confirmed by comparison of imaging to preparations in which monocyte/macrophage depletion has been undertaken. Such depletion was achieved by treatment with gadolinium chloride (GAD).
Further, to confirm that hyperfluorescent FAF or abnormal patterns of FAF and hyperfluorescent DNIRA correlated or co-localized with the distribution of phagocytic cells, the circulating macrophage/monocyte population was depleted using gadolinium chloride (GAD or GdCl3), a rare earth metal salt which depresses macrophage activity. […] This was evident qualitatively both within the geographic areas of damage, and at its border (FIGS. 8A-C).

[2] = tested on: retinal function (b-wave amplitude); assay: Electroretinography toxicity study of systemic ICG; details: high (5.0 mg/kg) and low (0.35 mg/kg) systemic dose vs PBS; three weeks following injection
Protocol: Electroretinography (ERG) was performed to evaluate potential toxicity.
Electroretinography (ERG): animals receiving ICG or PBS were evaluated using the Espion (DiagnosysLLC, USA) mini-Ganzfeld ERG system. Following anesthesia, animals were placed on an electrically silent heating pad and gold coil electrodes placed on the corneal surface after application of GenTeal lubricating drops. Following a short train of dim flashes (0.01 candela s/m^2, 1.0 Hz), a scotopic b-wave amplitude was evaluated using a single bright flash (3 candela s/m^2) that we previously determined consistently produces a response close to the maximum b-wave amplitude. Student t-test was used to compare post-injection amplitudes against baseline (prior to injection).

[3] = biological target: complement factor D (CFD) (Homo sapiens, UniProt P00746); details: phase II, 18 month period, patients; cited from earlier work
complement factor D (CFD), sequence (P00746 26-253): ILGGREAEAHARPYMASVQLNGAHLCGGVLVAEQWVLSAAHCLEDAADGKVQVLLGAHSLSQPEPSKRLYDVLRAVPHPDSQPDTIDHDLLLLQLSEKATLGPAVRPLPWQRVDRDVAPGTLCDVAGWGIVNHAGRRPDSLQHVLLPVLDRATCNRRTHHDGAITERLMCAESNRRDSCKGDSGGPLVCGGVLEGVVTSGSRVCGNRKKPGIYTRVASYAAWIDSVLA

Compound: [Cl][Gd]([Cl])[Cl] [GAD, gadolinium chloride]
- area of damage ([1]; 7 days after NaIO3 and simultaneous GAD depletion): smaller areas of damage
- NaIO3-induced pattern of FAF (and DNIRA) [1]: far less well defined reticular patterns of FAF; also recorded: profound alteration; also recorded: less well-demarcated borders
- NaIO3-induced pattern of FAF (and DNIRA) ([1]; listed as gadolinium): alters the FAF pattern

Compound: CC1(C)C(/C=C/C=C/C=C/C=C2\N(CCCCS(=O)(=O)O)c3ccc4ccccc4c3C2(C)C)=[N+](CCCCS(=O)(=O)[O-])c2ccc3ccccc3c21 [ICG, indocyanine green]
- change in ERG b-wave amplitude [2]: no statistically significant change

Compound: Lampilizumab: complement factor D (CFD) inhibitor; anti-factor D antibody (Genentech)
- growth (expansion) of geographic atrophy [3]: can slow the growth
